Activity calls are given as the source filed them. The calls are words filed in the database; no cut-off is given here.
Tests used:
MCF7 [1] = assay: Induction of apoptosis in human MCF7 cells assessed as late apoptotic cells at 0.01 uM after 24 hrs by Annexin-V and 7-AAD staining based flow cytometric analysis (reference value: 7.63%); type: functional
MCF7 [2] = assay: Induction of cell cycle arrest in human MCF7 cells assessed as accumulation at S phase at 0.05 uM after 24 hrs by 7-AAD staining-based flow cytometric analysis (reference value: 26.07%); type: functional
HCT-116 [3] = assay: Induction of cell cycle arrest in human HCT116 cells assessed as accumulation at G0/G1 phase at 0.005 uM after 24 hrs by 7-AAD staining-based flow cytometric analysis (reference value: 50.53%); type: functional
Homo sapiens = species on record: Homo sapiens; settings: 0.05 to 0.1 uM
Description: Antimigratory activity against human MCF7 cells assessed as reduction in cell migration at 0.05 to 0.1 uM incubated for 30 mins and measured after 24 hrs by crystal violet staining based inverted microscopic analysis

HCT-116 [4] = assay: Induction of apoptosis in human HCT116 cells assessed as necrotic cells at 0.005 uM after 24 hrs by Annexin-V and 7-AAD staining based flow cytometric analysis (reference value: 0.68%); type: functional
HCT-116 [5] = assay: Induction of cell cycle arrest in human HCT116 cells assessed as increase in accumulation at G2/M phase after 24 hrs by 7-AAD staining-based flow cytometric analysis; type: functional
MCF7 [6] = assay: Induction of apoptosis in human MCF7 cells assessed as necrotic cells at 0.01 uM after 24 hrs by Annexin-V and 7-AAD staining based flow cytometric analysis (reference value: 0.16%); type: functional
HCT-116 [7] = assay: Induction of apoptosis in human HCT116 cells assessed as early apoptotic cells at 0.005 uM after 24 hrs by Annexin-V and 7-AAD staining based flow cytometric analysis (reference value: 8.11%); type: functional
HCT-116 [8] = assay: Induction of apoptosis in human HCT116 cells assessed as viable cells at 0.1 uM after 24 hrs by Annexin-V and 7-AAD staining based flow cytometric analysis (reference value: 88.6%); type: functional; settings: HCT-116, 24 h, read-out: Activity
MCF7 [9] = assay: Induction of cell cycle arrest in human MCF7 cells assessed as accumulation at S phase at 0.01 uM after 24 hrs by 7-AAD staining-based flow cytometric analysis (reference value: 26.07%); type: functional
HCT-116 [10] = assay: Induction of apoptosis in human HCT116 cells assessed as early apoptotic cells at 0.05 uM after 24 hrs by Annexin-V and 7-AAD staining based flow cytometric analysis (reference value: 8.11%); type: functional
MCF7 [11] = assay: Induction of cell cycle arrest in human MCF7 cells assessed as increase in accumulation at G2/M phase after 24 hrs by 7-AAD staining-based flow cytometric analysis; type: functional
HCT-116 [12] = assay: Induction of apoptosis in human HCT116 cells assessed as viable cells at 0.05 uM after 24 hrs by Annexin-V and 7-AAD staining based flow cytometric analysis (reference value: 88.6%); type: functional; settings: HCT-116, 24 h, read-out: Activity
MCF7 [13] = assay: Induction of cell cycle arrest in human MCF7 cells assessed as accumulation at G0/G1 phase at 0.05 uM after 24 hrs by 7-AAD staining-based flow cytometric analysis (reference value: 62.45%); type: functional
MCF7 [14] = assay: Induction of apoptosis in human MCF7 cells assessed as late apoptotic cells at 0.05 uM after 24 hrs by Annexin-V and 7-AAD staining based flow cytometric analysis (reference value: 7.63%); type: functional
HCT-116 [15] = assay: Induction of cell cycle arrest in human HCT116 cells assessed as accumulation at S phase at 0.05 uM after 24 hrs by 7-AAD staining-based flow cytometric analysis (reference value: 37.20%); type: functional
HCT-116 [16] = assay: Induction of cell cycle arrest in human HCT116 cells assessed as accumulation at G2/M phase at 0.1 uM after 24 hrs by 7-AAD staining-based flow cytometric analysis (reference value: 12.26%); type: functional
MCF7 [17] = assay: Induction of cell cycle arrest in human MCF7 cells assessed as accumulation at G2/M phase at 0.05 uM after 24 hrs by 7-AAD staining-based flow cytometric analysis (reference value: 11.48%); type: functional

`CNC(=O)c1ccccc1Nc1nc(Nc2ccc(C(=O)N3CCN(C(=S)SCCN(C)C)CC3)cc2)ncc1C(F)(F)F` showed an Activity (MCF7 [1]) of 21.4%, an Activity (MCF7 [2]) of 7.2% and an Activity (HCT-116 [3]) of 39.76%. The inhibition (Homo sapiens) was “Active”, the Activity (HCT-116 [4]) was 0.2% and the Activity (HCT-116 [5]) was “Dose-dependent effect”. The Activity (MCF7 [6]) was 0.47%, the Activity (HCT-116 [7]) was 15.9% and the viability at 0.1 µM (HCT-116 [8]) was 78.4%. The Activity (MCF7 [9]) was 8.75%, the Activity (HCT-116 [10]) was 18.7% and the Activity (MCF7 [11]) was “Dose-dependent effect”. The viability at 0.05 µM (HCT-116 [12]) was 79.3%, the Activity (MCF7 [13]) was 6.72% and the Activity (MCF7 [14]) was 25.7%. The Activity (HCT-116 [15]) was 9.05%, the Activity (HCT-116 [16]) was 90.46% and the Activity (MCF7 [17]) was 86.08%.

Reference: ChEMBL document CHEMBL4350989, “Discovery of 2,4-diarylaminopyrimidine derivatives bearing dithiocarbamate moiety as novel FAK inhibitors with antitumor and anti-angiogenesis activities” (Eur J Med Chem, 2019)
